Source: US9512180B2, “Compstatin analogs” (THE REGENTS OF THE UNIVERSITY OF CALIFORNIA, priority 2012, dated 2016)
“And” between values parts separate entries of the source, which are not always exact repeats. Equal values may be shown once. Marks after values point to notes of the source that are not given here. Bridge positions count the residues as written; N and C are the ends. Square brackets hold non-standard residues; d marks the D form. Peptide text beside a SMILES is read from it. Trp(1-Me) = Cn1cc(C[C@H](N)C(=O)O)c2ccccc21

How the values were obtained:
[1] = system: complement alternative pathway (AP); test: Hemolytic assay (rabbit erythrocyte lysis in human serum); type: cell-based; conditions: for IC50: Table 9, means from three independent experiments, read-out: IC50, Hemolytic assay
Method: Inhibition of complement was also measured via lysis of erythrocytes. Rabbit erythrocytes (Complement Technology Inc., Tyler, Tex., USA) were washed in PBS and resuspended in veronal-buffered saline with 5 mM MgCl2 and 10 mM EGTA (VBS-MgEGTA). Peptide and serum dilutions were prepared as described above, and 1×10^7 erythrocytes were added to each serum/peptide mixture. Erythrocytes diluted in sterile deionized water and in VBS-MgEGTA were used as positive and negative controls for lysis, respectively. Plates were incubated for 20 minutes at 37° C., and centrifuged at 2500×g for 10 minutes.
In all assays, MgEGTA was used to chelate Ca′ ions required for classical/lectin pathway complement activation, while providing Mg′ necessary for AP activation. ELISAs allow for direct detection of C3b and C5b-9 formed during AP activation, while erythrocyte lysis assays provide a functional assessment of AP-mediated hemolysis in serum.

[2] = system: Human fetal RPE cells; test: RPE cell-based assay: confocal analysis of deposit-associated C5b-9 (normalized to ApoE); conditions: peptide 1 μM; for deposit-associated C5b-9 (C5b-9/ApoE) relative to positive control: ~24 hrs, mean±S.E.M., RPE cultures of three donors; for Confocal Imaging % of positive control: deposit-associated C5b-9 normalized to ApoE, Mean (S.E.M.)
Method: The in vitro drusen biogenesis model was employed. Human fetal RPE cells (Advanced Bioscience Resources, Alameda, Calif.) were cultured on Millipore HA porous supports (Millipore, Cat # PIHA 01250) in Miller medium (Maminishkis et al., 2006) supplemented with 5% fetal calf serum (FCS). Cultures derived from three different donor eyes were employed. Cells were rinsed with warm, sterile PBS and the insert membrane was excised with a scalpel and cut into small (˜4 mm^2) pieces which were placed in wells of a 96-well plate. To minimize effects of inter-culture variability, samples prepared from a single membrane were utilized for each experiment. The samples were rinsed in PBS and then exposed individually to the library of compstatin family peptides at 1 μM in FCS-free Miller medium containing 10% human complement serum (Innovative Research, Cat # IPLA-CSER AB, Lot # L12402). In preliminary experiments, compstatin family Peptides I, III, VI, VII, VIII, IX, and Parent (Table 7), were tested in the RPE cell assay at 100 μM and titrated by C5b-9 ELISA over a concentration range of 0.04-130 μM. […] Also from this assessment, Peptide VI, as well as Peptides I and III, were selected for further studies. Peptides I and III were chosen for comparative studies to Peptide VI, because they contain an arginine residue at position 1. The goal was to determine whether peptides containing arginine at position −1 (Peptide VI) or at position 1 (Peptides I and III) were potent complement inhibitors using the RPE cell assay and had improved aqueous solubility compared to previously known potent analogs. Negative control cells were exposed to Miller medium+5% FCS; positive control cells were exposed to Miller medium+10% human complement serum without inhibitory peptides. Experimental and control medium/inhibitor solutions were pre-mixed on a rocker at room temperature for 30 min, then warmed to 37° C., prior to placement on the samples and incubation for ˜24 hrs at 37° C. in a 7.0% CO2 incubator. Following the incubation period, the medium was removed and stored frozen prior to ELISA analysis. The cell/membrane samples were rinsed in PBS, fixed in cold 4% paraformaldehyde (PFA) in PBS for 20 min, and stored in 0.4% PFA until use in immunohistochemical assays.
Fixed samples were rinsed several times in PBS, embedded in 10% agarose (Type XI, Sigma-Aldrich, Cat # A3038) and sectioned at 100 μm on a vibratome. Sections were blocked with normal donkey serum ( 1/20 in PBT: PBS containing 0.5% bovine serum albumin and 0.1% Triton X-100) overnight at 4° C. The sections were then co-incubated in two primary antibodies (polyclonal goat anti-ApoE, Millipore Cat # AB947; 1/1000 in PBT, and mouse monoclonal anti-05b-9 aEll, Dako Cat # M0777; 1/200 in PBT) overnight at 4° C., then rinsed in PBT and co-incubated in secondary antibodies (Alexa Fluor 546-conjugated donkey anti-goat IgG and Alexa Fluor 488-conjugated donkey anti-mouse IgG, both 1/200 in PBT; Life Technologies Cat # A-11056 and # A-21202) overnight at 4° C. Sections were rinsed in PBT, stained with Hoechst 33342 (Life Technologies Cat # H3570), and mounted on slides with Prolong Gold (Life Technologies Cat # P36930).
Samples were imaged on an Olympus FV1000 confocal laser scanning microscope. A total of 154 single-plane images were acquired at a resolution of 1024×768 pixels and the digital image files were saved in 24-bit tiff format. Digital image analysis was performed with MetaMorph software (Molecular Devices, Sunnyvale, Calif.). For the analysis, a standard measurement region, which included both the RPE cell monolayer and all of the adjacent sub-cellular deposits, was applied to each image. The Set Threshold Color Tool was utilized to analyze each color channel separately; the threshold tool creates a boundary around the objects being measured (i.e., sub-cellular deposits) on the basis of color intensity. […]

[3] = Aqueous solubility by concentration measurement (absorbance at 280 nm) of saturated peptide solutions; type: physicochemical
Method: The relative lipophilicities of Peptides I, III, VI, IX, and Parent are inversely consistent with solubilities as determined via concentration measurement (absorbance at 280 nm) of saturated peptide solutions, with Peptides I, III, and Parent having approximate aqueous solubilities of >1 mM, Peptide VI>500 μM, and Peptide IX<500 μM.

| SMILES | IC50 [1] [nM] | difference in inhibition to other peptides ([1]; hemolysis, versus Peptides I, III, VI, IX) | deposit-associated C5b-9 (C5b-9/ApoE) relative to positive control ([2]; 10% human complement serum) [%] | Confocal Imaging % of positive control [2] | solubility [3] [µM] | Deposit-associated C5b9 (green channel) immunofluorescence, Integrated Area ([2]; RPE 020207, 10% human complement serum, one value per image) |
| --- | --- | --- | --- | --- | --- | --- |
| CC[C@H](C)[C@H](N)C(=O)N[C@H]1CSSC[C@@H](C(=O)N[C@H](C(N)=O)[C@@H](C)O)NC(=O)[C@H](CCCN=C(N)N)NC(=O)[C@H](Cc2cnc[nH]2)NC(=O)[C@H](Cc2cnc[nH]2)NC(=O)CNC(=O)[C@H](Cc2c[nH]c3ccccc23)NC(=O)[C@H](CC(=O)O)NC(=O)[C@H](CCC(N)=O)NC(=O)[C@H](C(C)C)NC(=O)[C@H](C(C)C)NC1=O [Parent, ICV VQDWGH HRCT-NH2, reference compound] | 12900 | 4- to 6 fold | 83.2±5.9 | 83.19 (5.92) % of positive control | – | – |
| CC(=O)N[C@@H](CCCNC(=N)N)C(=O)N[C@H]1CSSC[C@@H](C(=O)N[C@H](C(N)=O)[C@@H](C)O)NC(=O)[C@H](CCCNC(=N)N)NC(=O)[C@H](Cc2c[nH]cn2)NC(=O)[C@H](C)NC(=O)CNC(=O)[C@H](Cc2c[nH]c3ccccc23)NC(=O)[C@H](CC(=O)O)NC(=O)[C@H](CCC(N)=O)NC(=O)[C@H](Cc2c[nH]c3ccccc23)NC(=O)[C@H](C(C)C)NC1=O [Peptide I, Ac- RCV WQDWGA HRCT-NH2] (Ac-RCVWQDWGAHRCT-NH2; disulfide 2-12) | 3330 | – | 55.3±12.3 | 55.27 (12.30)^a % of positive control | > 1000 | – |
| CC(=O)N[C@@H](CCCNC(=N)N)C(=O)N[C@H]1CSSC[C@@H](C(=O)N[C@H](C(N)=O)[C@@H](C)O)NC(=O)[C@H](CCCNC(=N)N)NC(=O)[C@H](Cc2c[nH]cn2)NC(=O)[C@H](C)NC(=O)CNC(=O)[C@H](Cc2c[nH]c3ccccc23)NC(=O)[C@H](CC(=O)O)NC(=O)[C@H](CCC(N)=O)NC(=O)[C@H](Cc2cn(C)c3ccccc23)NC(=O)[C@H](C(C)C)NC1=O [Peptide III, Ac- RCV meWQDWGA HRCT-NH2] (Ac-RCV[Trp(1-Me)]QDWGAHRCT-NH2; disulfide 2-12) | 2250 | – | 20.0±6.8 | 19.98 (6.84) % of positive control | > 1000 | – |
| CC[C@H](C)[C@H](NC(=O)[C@H](CO)NC(=O)[C@H](CCCNC(=N)N)NC(C)=O)C(=O)N[C@H]1CSSC[C@@H](C(=O)N[C@H](C(N)=O)[C@@H](C)O)NC(=O)[C@H](CCCNC(=N)N)NC(=O)[C@H](Cc2c[nH]cn2)NC(=O)[C@H](C)NC(=O)CNC(=O)[C@H](Cc2c[nH]c3ccccc23)NC(=O)[C@H](CC(=O)O)NC(=O)[C@H](CCC(N)=O)NC(=O)[C@H](Cc2cn(C)c3ccccc23)NC(=O)[C@H](C(C)C)NC1=O [Peptide VI, Ac-RS-ICV meWQDWGA HRCT-NH2] | 2230 | – | 14.9±5.6 | 14.85 (5.61) % of positive control | > 500 | 86318 pixels and 70370 pixels and 77727 pixels and 91254 pixels and 59969 pixels |
